Measurements taken from PMC6753210, “^18F-Labeled Cyclized α-Melanocyte-Stimulating Hormone Derivatives for Imaging Human Melanoma Xenograft with Positron Emission Tomography” (Scientific Reports, 2019).
One block for each compound: values may come before it.

Columns and labels:
MC1R = target: T1, MC1R (Mus musculus, UniProt Q01727); experiment: In vitro competition binding assay with [^125I]NDP-αMSH on B16-F10 cells; conditions: 0.1 nM [^125I]NDP-αMSH, 25 °C, 1 h, n = 3
T1 construct: endogenous in cells; host or cells: B16-F10 mouse melanoma cells
T1 sequence (Q01727 whole entry): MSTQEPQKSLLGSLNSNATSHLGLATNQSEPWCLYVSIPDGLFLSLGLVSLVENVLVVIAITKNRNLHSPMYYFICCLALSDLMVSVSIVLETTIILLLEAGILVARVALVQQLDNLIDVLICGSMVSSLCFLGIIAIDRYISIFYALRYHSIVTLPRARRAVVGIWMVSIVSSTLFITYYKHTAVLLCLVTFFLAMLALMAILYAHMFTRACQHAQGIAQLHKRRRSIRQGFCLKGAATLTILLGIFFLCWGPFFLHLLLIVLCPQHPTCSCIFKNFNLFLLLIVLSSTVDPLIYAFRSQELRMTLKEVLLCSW
Procedure: Receptor binding affinity of CCZ01096 was assessed using previously published procedures. Briefly, approximately 500,000 B16-F10 cells/well were seeded onto 24 well poly-D-lysine plates overnight. The cells were washed with PBS and the growth media was replaced by the reaction buffer described above. Increasing concentrations of non-radioactive CCZ01096 (0.5 pM to 5 μM) along with 0.1 nM of [^125I]NDP-αMSH were also added. The reaction mixture was incubated at 25 °C with moderate agitation for 1 h. Cells were washed with ice-cold PBS, harvested, and measured for radioactivity on a WIZARD 2480 gamma counter.

[1] = tested on: SK-MEL-1 human melanoma xenografts; experiment: Biodistribution in NSG mice bearing human SK-MEL-1 melanoma xenografts; format: in vivo, mouse; conditions: 1 h p.i.
Procedure: (§1) All animal experiments were conducted in according to the guidelines established by Canadian Council on Animal Care and approved by Animal Ethics Committee of the University of British Columbia. Male C57BL/6 J and immunodeficient NSG mice were obtained from an in-house breeding colony at the BC Cancer Research Centre. For tumor implantation, mice were anesthetized by inhalation with 2% isoflurane, 1 × 10^6 B16-F10 and 5 × 10^6 SK-MEL-1 cells were inoculated subcutaneously on the right dorsal flank of C57BL/6J and NSG mice, respectively. Mice were used for imaging or biodistribution studies when the tumors reached 6–8 mm in diameter.
(§2) μPET/μCT imaging and biodistribution experiments were performed on a μPET/μCT scanner (Inveon, Siemens) using previously published procedures. Briefly, tumor-bearing mice were injected with approximately 3.0–5.0 MBq (for imaging) or <1.5 MBq (for biodistribution) of radiolabeled peptides via tail vein under sedation (2% isoflurane inhalation). For [^18F]FDG imaging and biodistribution, mice underwent fasting overnight prior to the experiments. Imaging studies were performed in duplicate or triplicate. […] After injection, mice were allowed to recover and roam freely in their cages. At 1 or 2 h p.i., mice were anesthetized again and positioned in the scanner. A baseline CT scan was obtained for localization and attenuation correction, followed by a 10–15 min static μPET scan. For biodistribution studies, mice were euthanized by CO2 inhalation, blood was withdrawn promptly, and the tissues of interest were harvested, rinsed, and blotted dry. All tissues were weighed and the radioactivity of the collected samples was measured using a WIZARD 2480 gamma counter.

[2] = as above; format: in vivo, mouse; conditions: male, NSG, mouse, SK-MEL-1 tumor, iv, total radioactivity, 1 h p.i., n = 4
Procedure: as §1, §2

[3] = NSG mice, SK-MEL-1 xenograft, unblocked, n = 5 ([^18F]FDG n = 4)

Ki (MC1R): 0.51 ± 0.08 nM
Structure (SMILES): CCCC[C@H](NC(=O)CN1CCC(NC(=O)C(CCCCNC(=O)Cn2cc(C[N+](C)(C)C[B-](F)(F)F)nn2)NC(=O)Cn2cc(C[N+](C)(C)C[B-](F)(F)F)nn2)CC1)C(=O)N[C@H]1CC(=O)NCCCC[C@@H](C(N)=O)NC(=O)[C@H](Cc2c[nH]c3ccccc23)NC(=O)[C@H](CCCNC(=N)N)NC(=O)[C@@H](Cc2ccccc2)NC(=O)[C@H](Cc2c[nH]cn2)NC1=O (stereo partly drawn) [CCZ01096]

tissue uptake at 1 h ([2]; 5.9 pmol, without co-injection, total injected peptide mass 5.9 ± 0.90 pmol): 6.15 ± 0.22 %ID/g
tissue uptake at 1 h ([2]; co-injection of 20 pmol ^natGa-CCZ01048, total peptide mass 27.5 ± 0.6 pmol): 2.66 ± 0.22 %ID/g
tissue uptake at 1 h ([2]; co-injection of 50 pmol ^natGa-CCZ01048, total peptide mass 57.3 ± 1.0 pmol): 1.31 ± 0.13 %ID/g
tissue uptake at 1 h ([2]; co-injection of 100 pmol ^natGa-CCZ01048, total peptide mass 109 ± 1.0 pmol): 1.04 ± 0.17 %ID/g
Structure (SMILES): CCCC[C@H](NC(=O)CN1CCC(NC(=O)CN2CCN(CC(=O)O)CCN(CC(=O)O)CCN(CC(=O)O)CC2)CC1)C(=O)N[C@H]1CC(=O)NCCCC[C@@H](C(N)=O)NC(=O)[C@H](Cc2c[nH]c3ccccc23)NC(=O)[C@H](CCCNC(=N)N)NC(=O)[C@@H](Cc2ccccc2)NC(=O)[C@H](Cc2c[nH]cn2)NC1=O [[^68Ga]Ga-CCZ01048, metal not drawn]
Reduction of tumor uptake ([1]; co-injection of 20 pmol ^natGa-CCZ01048 vs none): 57%
Reduction of tumor uptake ([1]; co-injection of 50 pmol ^natGa-CCZ01048 vs none): 79%
Reduction of tumor uptake ([1]; co-injection of 100 pmol ^natGa-CCZ01048 vs none): 83%

Adrenal glands uptake [1, 3]: 2.05±0.28 %ID/g
Blood uptake [1, 3]: 0.95±0.27 %ID/g
Bone uptake [1, 3]: 0.86 ± 0.35 %ID/g
Brain uptake [1, 3]: 9.54 ± 1.69 %ID/g
Fat uptake [1, 3]: 0.86±0.21 %ID/g
Heart uptake [1, 3]: 8.80 ± 4.42 %ID/g
Intestines uptake [1, 3]: 3.95 ± 0.16 %ID/g
Kidneys uptake [1, 3]: 3.01±0.28 %ID/g
Liver uptake [1, 3]: 1.48±0.14 %ID/g
Lungs uptake [1, 3]: 3.42±0.40 %ID/g
Muscle uptake [1, 3]: 1.75 ± 0.54 %ID/g
Pancreas uptake [1, 3]: 1.41±0.20 %ID/g
Seminal glands uptake [1, 3]: 4.63 ± 0.57 %ID/g
Spleen uptake [1, 3]: 3.59±0.68 %ID/g
Stomach uptake [1, 3]: 1.00±0.11 %ID/g
Testes uptake [1, 3]: 1.15±1.03 %ID/g
Thyroid uptake [1, 3]: 2.72±0.13 %ID/g
Tumor/Blood ratio [1, 3]: 7.64±2.06
Tumor/Bone ratio [1, 3]: 8.83±2.62
Tumor/Kidneys ratio [1, 3]: 2.30±0.04
Tumor/Muscle ratio [1, 3]: 4.22±1.30
SK-MEL-1 tumor uptake ([1]; NSG mice, SK-MEL-1 xenograft, tail vein, unblocked, gamma counter, n = 5 ([^18F]FDG n = 4)): 6.91 ± 0.66 %ID/g
Structure (SMILES): OC[C@H]1OC(O)[C@H]([18F])[C@@H](O)[C@@H]1O (stereo partly drawn) [[^18F]FDG, 2-[^18F]fluorodeoxyglucose]
